Results reported in ChEMBL document CHEMBL4020733, “Approaches towards the development of chimeric DPP4/ACE inhibitors for treating metabolic syndrome” (Bioorg Med Chem Lett, 2017).

Key:
[1] = Inhibition of APP (unknown origin); parameters: species or system Homo sapiens
Cytochrome P450 2C19 = Cytochrome P450 2C19 (Homo sapiens, UniProt P33261); assay: Inhibition of CYP2C19 (unknown origin) up to 10 uM; type: ADME
[2] = biological target: T1, Angiotensin-converting enzyme (Rattus norvegicus, UniProt P47820); assay: Inhibition of Wistar rat plasma ACE
T1 sequence (P47820 whole entry): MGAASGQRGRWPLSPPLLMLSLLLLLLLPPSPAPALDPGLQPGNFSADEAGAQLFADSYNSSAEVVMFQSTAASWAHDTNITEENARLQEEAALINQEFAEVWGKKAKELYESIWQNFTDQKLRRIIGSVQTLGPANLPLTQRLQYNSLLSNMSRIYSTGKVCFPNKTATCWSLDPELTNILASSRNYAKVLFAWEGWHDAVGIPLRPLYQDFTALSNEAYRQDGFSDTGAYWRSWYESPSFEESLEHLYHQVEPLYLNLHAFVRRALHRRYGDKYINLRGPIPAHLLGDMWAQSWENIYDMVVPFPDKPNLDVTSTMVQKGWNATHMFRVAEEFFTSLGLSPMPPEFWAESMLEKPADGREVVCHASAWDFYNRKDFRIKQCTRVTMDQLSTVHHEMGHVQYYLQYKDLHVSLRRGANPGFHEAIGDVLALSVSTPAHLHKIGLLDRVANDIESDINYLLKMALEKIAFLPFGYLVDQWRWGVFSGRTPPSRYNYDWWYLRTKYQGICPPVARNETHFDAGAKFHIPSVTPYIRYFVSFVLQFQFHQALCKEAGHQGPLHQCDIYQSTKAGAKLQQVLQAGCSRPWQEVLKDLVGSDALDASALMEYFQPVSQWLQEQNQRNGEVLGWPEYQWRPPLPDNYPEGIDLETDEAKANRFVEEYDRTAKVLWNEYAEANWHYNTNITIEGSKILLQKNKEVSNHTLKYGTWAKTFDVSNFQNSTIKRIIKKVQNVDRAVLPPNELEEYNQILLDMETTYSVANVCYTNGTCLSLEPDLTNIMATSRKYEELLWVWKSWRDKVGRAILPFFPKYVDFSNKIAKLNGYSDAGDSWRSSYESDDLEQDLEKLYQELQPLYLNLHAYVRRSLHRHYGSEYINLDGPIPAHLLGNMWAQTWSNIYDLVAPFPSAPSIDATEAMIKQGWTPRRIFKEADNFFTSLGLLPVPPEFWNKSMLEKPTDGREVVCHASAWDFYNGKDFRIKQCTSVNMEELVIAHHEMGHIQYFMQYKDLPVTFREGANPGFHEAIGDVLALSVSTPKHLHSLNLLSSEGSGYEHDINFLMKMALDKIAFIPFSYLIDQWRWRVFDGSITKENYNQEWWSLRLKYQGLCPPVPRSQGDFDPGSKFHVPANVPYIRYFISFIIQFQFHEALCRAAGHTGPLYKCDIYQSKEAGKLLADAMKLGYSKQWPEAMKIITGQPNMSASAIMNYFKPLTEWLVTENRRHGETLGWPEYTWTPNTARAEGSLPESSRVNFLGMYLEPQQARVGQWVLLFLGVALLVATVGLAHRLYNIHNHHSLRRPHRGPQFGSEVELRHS

[3] = Plasma protein binding in human; type: ADME, cell-free; settings: read-out: PPB (converted)
[4] = Plasma protein binding in rat; type: ADME, cell-free; settings: read-out: PPB (converted)
Dipeptidyl peptidase 9 = Dipeptidyl peptidase 9 (Homo sapiens, UniProt Q86TI2); assay: Inhibition of DPP9 (unknown origin)
Sequence of Dipeptidyl peptidase 9 (Q86TI2 whole entry): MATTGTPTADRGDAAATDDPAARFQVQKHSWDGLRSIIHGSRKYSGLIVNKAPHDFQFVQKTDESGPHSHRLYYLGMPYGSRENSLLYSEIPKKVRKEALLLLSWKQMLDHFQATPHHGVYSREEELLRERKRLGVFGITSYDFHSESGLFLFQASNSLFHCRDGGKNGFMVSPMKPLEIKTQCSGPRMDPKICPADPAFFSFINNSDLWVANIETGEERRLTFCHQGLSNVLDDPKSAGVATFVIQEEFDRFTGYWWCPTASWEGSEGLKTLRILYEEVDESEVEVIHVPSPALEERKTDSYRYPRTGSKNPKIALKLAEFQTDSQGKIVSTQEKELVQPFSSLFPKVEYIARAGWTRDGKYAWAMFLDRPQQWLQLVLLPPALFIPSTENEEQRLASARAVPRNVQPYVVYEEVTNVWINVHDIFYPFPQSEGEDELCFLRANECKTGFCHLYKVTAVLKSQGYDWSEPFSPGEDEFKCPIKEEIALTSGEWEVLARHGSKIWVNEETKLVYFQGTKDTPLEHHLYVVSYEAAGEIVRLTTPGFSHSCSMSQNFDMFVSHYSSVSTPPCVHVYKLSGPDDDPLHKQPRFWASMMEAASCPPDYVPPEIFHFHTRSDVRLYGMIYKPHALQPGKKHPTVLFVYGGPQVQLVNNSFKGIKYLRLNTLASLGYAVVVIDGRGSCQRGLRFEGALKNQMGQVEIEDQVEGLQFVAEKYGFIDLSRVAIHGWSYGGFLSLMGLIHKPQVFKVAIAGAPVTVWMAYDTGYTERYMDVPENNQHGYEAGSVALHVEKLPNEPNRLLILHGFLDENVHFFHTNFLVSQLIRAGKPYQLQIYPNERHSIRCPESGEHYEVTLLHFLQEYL

Dipeptidyl peptidase 2 = Dipeptidyl peptidase 2 (Homo sapiens, UniProt Q9UHL4); assay: Inhibition of DPP2 (unknown origin)
Cytochrome P450 3A4 = Cytochrome P450 3A4 (Homo sapiens, UniProt P08684); assay: Inhibition of CYP3A4 (unknown origin) up to 10 uM; type: ADME
Sequence of Cytochrome P450 3A4 (P08684 whole entry): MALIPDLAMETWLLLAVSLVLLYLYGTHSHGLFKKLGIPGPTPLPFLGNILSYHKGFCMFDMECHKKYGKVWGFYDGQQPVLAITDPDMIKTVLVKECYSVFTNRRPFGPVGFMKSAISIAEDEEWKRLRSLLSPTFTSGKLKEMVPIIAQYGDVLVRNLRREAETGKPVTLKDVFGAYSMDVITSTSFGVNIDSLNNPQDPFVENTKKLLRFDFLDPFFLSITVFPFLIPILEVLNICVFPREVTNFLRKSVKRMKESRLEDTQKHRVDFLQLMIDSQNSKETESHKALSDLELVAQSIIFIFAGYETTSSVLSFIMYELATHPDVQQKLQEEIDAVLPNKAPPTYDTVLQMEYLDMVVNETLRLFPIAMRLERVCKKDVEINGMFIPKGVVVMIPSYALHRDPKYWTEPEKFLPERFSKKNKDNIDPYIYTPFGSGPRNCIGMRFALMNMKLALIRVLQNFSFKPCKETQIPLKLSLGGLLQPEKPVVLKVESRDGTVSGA

Liver = assay: Stability in dog liver microsomes; type: ADME, Canis lupus familiaris, microsome
Prolyl endopeptidase = biological target: T2, Prolyl endopeptidase (Homo sapiens, UniProt P48147); assay: Inhibition of PPCE (unknown origin)
T2 sequence (P48147 whole entry): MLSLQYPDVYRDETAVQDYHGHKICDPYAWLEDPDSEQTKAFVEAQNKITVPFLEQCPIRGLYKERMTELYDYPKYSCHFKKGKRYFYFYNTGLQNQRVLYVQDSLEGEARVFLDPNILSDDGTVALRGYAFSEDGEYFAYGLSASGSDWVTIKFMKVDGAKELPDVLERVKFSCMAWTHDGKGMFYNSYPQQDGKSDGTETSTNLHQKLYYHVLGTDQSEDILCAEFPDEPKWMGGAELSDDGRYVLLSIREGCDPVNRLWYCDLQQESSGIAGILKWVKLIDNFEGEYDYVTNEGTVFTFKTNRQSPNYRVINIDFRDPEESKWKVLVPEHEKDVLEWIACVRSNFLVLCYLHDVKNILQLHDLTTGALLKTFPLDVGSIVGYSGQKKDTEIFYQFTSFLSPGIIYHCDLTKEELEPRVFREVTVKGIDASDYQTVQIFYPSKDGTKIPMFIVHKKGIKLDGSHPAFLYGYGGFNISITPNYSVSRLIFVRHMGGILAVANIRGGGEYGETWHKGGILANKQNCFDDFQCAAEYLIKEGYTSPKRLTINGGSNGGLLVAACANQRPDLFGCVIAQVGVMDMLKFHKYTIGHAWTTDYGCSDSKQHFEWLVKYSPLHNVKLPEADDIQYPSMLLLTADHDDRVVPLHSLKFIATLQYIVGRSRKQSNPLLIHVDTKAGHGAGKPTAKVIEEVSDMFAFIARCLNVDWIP

Sequence of Cytochrome P450 2C19 (P33261 whole entry): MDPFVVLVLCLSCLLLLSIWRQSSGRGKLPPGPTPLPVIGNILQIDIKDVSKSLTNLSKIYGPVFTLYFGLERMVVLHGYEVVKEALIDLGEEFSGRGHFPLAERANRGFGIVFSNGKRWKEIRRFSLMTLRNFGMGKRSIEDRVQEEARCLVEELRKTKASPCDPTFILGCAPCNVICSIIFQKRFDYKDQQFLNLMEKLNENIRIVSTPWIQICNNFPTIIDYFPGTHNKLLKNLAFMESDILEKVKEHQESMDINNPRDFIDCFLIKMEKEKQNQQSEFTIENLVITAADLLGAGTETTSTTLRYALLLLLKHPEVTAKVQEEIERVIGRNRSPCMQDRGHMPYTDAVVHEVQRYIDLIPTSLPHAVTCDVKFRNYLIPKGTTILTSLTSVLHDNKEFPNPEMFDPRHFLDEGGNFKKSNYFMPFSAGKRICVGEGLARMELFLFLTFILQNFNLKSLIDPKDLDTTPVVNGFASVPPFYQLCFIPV

Compound	IC50 [1]	inhibition (INH) (Cytochrome P450 2C19)	IC50 [2]	fraction unbound [3]	fraction unbound [4]	IC50 (Dipeptidyl peptidase 9)	IC50 (Dipeptidyl peptidase 2)	inhibition (INH) (Cytochrome P450 3A4)	Stability (Liver)	IC50 (Prolyl endopeptidase)
C[C@H](N[C@@H](CCc1ccccc1)C(=O)O)C(=O)N1C[C@@H](NC(=O)C[C@H](N)Cc2cc(F)c(F)cc2F)C[C@H]1C(=O)O	> 100 µM	Not Active	0.334 µM	0.707	0.58	44 µM	> 100 µM	Not Active	Stable	–
CCC[C@H](N[C@@H](CCc1ccccc1)C(=O)O)C(=O)N1C[C@@H](NC(=O)C[C@H](N)Cc2cc(F)c(F)cc2F)C[C@H]1C(=O)O	> 100 µM	Not Active	0.893 µM	0.597	0.564	> 100 µM	> 100 µM	Not Active	Stable	> 100 µM
CC[C@H](N[C@@H](CCc1ccccc1)C(=O)O)C(=O)N1C[C@@H](NC(=O)C[C@H](N)Cc2cc(F)c(F)cc2F)C[C@H]1C(=O)O	> 100 µM	Not Active	0.024 µM	0.636	0.403	> 100 µM	> 100 µM	Not Active	Stable	> 100 µM
CCCC[C@H](N[C@@H](CCc1ccccc1)C(=O)O)C(=O)N1C[C@@H](NC(=O)C[C@H](N)Cc2cc(F)c(F)cc2F)C[C@H]1C(=O)O	> 100 µM	Not Active	2.8 µM	0.327	0.583	> 100 µM	> 100 µM	Not Active	Stable	> 100 µM
